Results taken from patent publication US4145554A, “3-Nitropyrazole derivatives” (Eli Lilly and Company, priority 1977, dated 1979).
In brackets after ≈: the same amount, converted by molar mass.

Columns and labels:
[1] = test system: Mycoplasma hyorhinis; test: in vitro tube dilution test (MIC); format: cell-based
Description: (§1) Our compound, 1-(2-hydroxyethyl)-3-nitro-4-pyrazolecarboxamide, has been extensively tested in vitro to determine the range of microorganisms against which it is active. The table of data below reports the minimum inhibitory concentration (MIC) at which the compound is effective in controlling a variety of microorganisms in a standard tube dilution test system. The MIC is reported as micrograms of compound per milliliter.
(§2) The other preferred compounds of our invention have also been thoroughly tested in the in vitro tube dilution test.

[2] = test system: Pseudomonas sp.; test: in vitro tube dilution test (MIC); format: cell-based
Description: as §1, §2

[3] = test system: Salmonella heidelburg 1593; test: in vitro tube dilution test (MIC); format: cell-based; settings: Salmonella heidelburg 1593 (turkey pancreas), tube dilution
Description: as §1, §2

[4] = test system: Salmonella pullorum Ill.; test: in vitro tube dilution test (MIC); format: cell-based; settings: Salmonella enterica
Description: as §1, §2

[5] = test system: Salmonella typhimurium 1335; test: in vitro tube dilution test (MIC); format: cell-based; settings: Salmonella enterica; Salmonella typhimurium 1335 (turkey intestine), tube dilution
Description: as §1, §2

[6] = test system: Treponema hyodysenteriae; test: in vitro tube dilution test (MIC); format: cell-based; settings: Brachyspira hyodysenteriae
[7] = test system: Bordetella bronchiseptica; test: in vitro tube dilution test (MIC); format: cell-based
[8] = test system: Staphylococcus sp.; test: in vitro tube dilution test (MIC); format: cell-based
[9] = test system: Salmonella typhimurium 1503; test: in vitro tube dilution test (MIC); format: cell-based; settings: Salmonella enterica, Salmonella typhimurium 1503 (poult intestine)
[10] = test system: Escherichia coli; test: agar dilution technique (MIC); format: cell-based
[11] = test system: Proteus sp.; test: agar dilution technique (MIC); format: cell-based
[12] = test system: Serratia sp.; test: agar dilution technique (MIC); format: cell-based
[13] = test system: Pseudomonas aeruginosa; test: agar dilution technique (MIC); format: cell-based
[14] = test system: E. amylovora; test: Fire blight of field-grown pear trees, natural and induced infections; format: in vivo; settings: 100 to 800 ppm. aqueous dispersions
Procedure: Our compound, 1-(2-hydroxyethyl)-3-nitro-4-pyrazolecarboxamide, was also tested against natural and induced infections of E. amylovora on field-grown pear trees.

[15] = test system: Streptococcus pyogenes; test: Tests in mice, Streptococcus pyogenes infection; format: in vivo; settings: S. pyogenes
Procedure: Groups of laboratory mice were inoculatd with E. coli or with Streptococcus pyogenes. The 3-nitropyrazoles were administered in two different modes to the infected mice. In one group of tests, the compound was administered in two subcutaneous doses of 83 mg./kg. each, given 1 and 5 hours after the mice were inoculated with the organism. The mice were observed, and the results reported below as the number of days the treated mice survived the challenge.
In the other group of tests, the dose of each compound which allowed 50 percent of the treated mice to survive the challenge was determined. Again, the compound was administered in subcutane divided doses, 1 and 5 hours post-inoculation.

[16] = test system: P. multocida; test: Mice infected with P. multocida, compound injected subcutaneously; format: in vivo; settings: 2.5 mg./kg. subcutaneous
Procedure: A second test was conducted in much the same way, except that the 3-nitropyrazole was injected to the treated mice subcutaneously at the same time they were infected with the P. multocida culture.

[17] = test system: Pasteurella multocida and P. hemolytica; test: Pasteurella pneumonia in calves; format: in vivo
[18] = test system: Salmonella typhimurium; test: Salmonellosis in chickens, single injection to day-old chicks; format: in vivo; settings: Salmonella enterica, TYPHIMURIUM, 168 h; single injection of 60 mg./kg.; seven days; read-out: Survival (converted)
Summary of the method: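 Five day-old chicks per group received one injection of compound at 60 mg./kg., then were challenged next day by subcutaneous S. typhimurium at a dose lethal to most or all untreated controls. Read-out is survivor count, pooled over repeat groups, with untreated challenged controls run in each batch.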

[19] = test system: avian E. coli; test: Colibacillosis in chickens, medicated feed; format: in vivo
[20] = test system: P. multocida; test: Pasteurellosis in turkeys; format: in vivo; settings: 100 gm./ton
[21] = test system: group E streptococci; test: Lymphadenitis in swine; format: in vivo; settings: 200 gm. per ton of feed; 7 weeks; 12 treated swine
Procedure: The same 3-nitropyrazole tested in the example immediately above was also tested to determine its ability to prevent lymphadenitis, or jowl abscess, infections in swine. One group of 12 young swine was treated with the 3-nitropyrazole compound as a feed additive at the rate of 200 gm. per ton of feed, and another group of 12 swine was held as infected controls. Administration of the 3-nitropyrazole began shortly before the administration of the challenge, and continued throughout the 7-week test. All of the swine were challenged with a culture of group E streptococci isolated from jowl abscesses of an infected pig. The challenge organisms were administered as a dispersion in the swine's drinking water. After 7 weeks, all of the swine were slaughtered, and their cervical areas were examined for the presence of the abscesses caused by lymphadenitis infections. […] Abscesses were found in 9 of the 12 infected control animals.

[22] = secretion in sow's milk; parameters: species or system swine; settings: in vivo
[23] = 8 days after challenge, 25 mg. per kg. intramuscular
[24] = 100 gm./ton, 10^-1 dilution challenge, initial weight 940 gm.
[25] = 100 gm./ton, further test, about 5 weeks of age
[26] = 200 gm./ton, 10^-1 dilution challenge, initial weight 940 gm.
[27] = 200 gm./ton, further test, about 5 weeks of age
[28] = 300 gm./ton feed, about 5 weeks old, 10^-2 dilution challenge, first test
[29] = 300 gm./ton, 10^-1 dilution challenge, initial weight 940 gm.

## NC(=O)c1cn(CCO)nc1[N+](=O)[O-] [Compound 32, 1-(2-hydroxyethyl)-3-nitro-4-pyrazolecarboxamide]
[1]
  MIC: 50 µg/mL (≈ 250 µM)
[2]
  MIC: 12.5 µg/mL (≈ 62.5 µM)
[3]
  MIC: < 1.56 µg/mL
[4]
  MIC: < 1.56 µg/mL
[5]
  MIC: 6.25 µg/mL (≈ 31.2 µM)
[6]
  MIC: 3.12 µg/mL (≈ 15.6 µM)
[7]
  MIC: 25 µg/mL (≈ 125 µM)
[8]
  MIC: 3.12 µg/mL (≈ 15.6 µM)
[9]
  MIC: < 1.56 µg/mL
[10]
  MIC: 8 µg/mL (≈ 40 µM)
[11]
  MIC: > 128 µg/mL
[12]
  MIC: 32 µg/mL (≈ 160 µM)
[13]
  MIC: 128 µg/mL (≈ 640 µM)
[14]
  control of fire blight on field-grown pear trees: controlled fire blight on the pear trees
[15]; two subcutaneous doses of 83 mg./kg., 1 and 5 hours
  Days Survived: 5.0 days
[15]; Streptococcus pyogenes, sc, subcutaneous, 1 and 5 hours post-inoculation
  ED50: 53.7 mg/kg
[16]
  Survival: 8/10
[17]; [23]
  pasteurellae identified in lungs: No pasteurellae were identified in the lungs of any of the three animals
  physical examination of lungs: minor consolidation or emphysema in areas of the lungs
[17]; indicated by temperatures, 25 mg. per kg. intramuscular
  extent of pasteurella infection: only a very mild pasteurella infection
[17]; post-challenge, 25 mg. per kg. intramuscular daily for five days
  Average Temperature: 102.7 ° F.
[18]
  responders at 60 mg/kg: 93.3%
[19]; [24]
  Avg. Wt.: 1239 gm.
  E. coli Lesions: 17/18
  Mortality: 0/18
[19]; 100 gm./ton, approximately 7-week-old chickens
  Mortality: 3/12
[19]; 100 gm./ton, approximately 7-week-old chickens, birds which died not examined
  E. coli Lesions: 5/9
[19]; [25]
  Avg. Wt.: 1209 gm.
  E. coli Lesions: 37/40
  Mortality: 6/40
[19]; [26]
  Avg. Wt.: 1250 gm.
  E. coli Lesions: 16/18
  Mortality: 0/18
[19]; [27]
  Avg. Wt.: 1353 gm.
  E. coli Lesions: 31/40
  Mortality: 2/40
[19]; [28]
  E. coli Lesions: 11/30
  Mortality: 0/30
  Wt.: 1103 gm.
[19]; [29]
  Avg. Wt.: 1302 gm.
  E. coli Lesions: 5/18
  Mortality: 0/18
[19]; 300 gm./ton, approximately 7-week-old chickens
  Mortality: 0/12
[19]; 300 gm./ton, approximately 7-week-old chickens, birds which died not examined
  E. coli Lesions: 4/12
[19]; 600 gm./ton, approximately 7-week-old chickens
  Mortality: 0/12
[19]; 600 gm./ton, approximately 7-week-old chickens, birds which died not examined
  E. coli Lesions: 2/12
[19]; 1000 gm./ton, approximately 7-week-old chickens
  Mortality: 0/12
[19]; 1000 gm./ton, approximately 7-week-old chickens, birds which died not examined
  E. coli Lesions: 0/12
[20]
  Mortality Rate: 20%
[20]; about 5 mg./kg./day
  Culture Isolation: 1/5
  Mortality Rate: 1/5
[21]
  abscesses in cervical areas: No abscesses were found in any of the treated swine
[22]
  secretion in sow's milk: secreted in sow's milk
